In patent publication EP2910557A1, “Enantiopure tetrasubstituted pyrrolidines as scaffolds for proteasome inhibitors and medicinal applications thereof” (Ikerchem, S.L., priority 2014, dated 2015):

How the values were obtained:
Assay in all cases: Cancer cell growth inhibition, 72 h treatment
Type in all cases: cell-based
MDA-MB-435 = settings: Homo sapiens, Melanoma MDA-MB-435, Alamar Blue
Method: (§1) Cell culture-based assays were used to evaluate the ability of compounds of the invention to inhibit cancer cell growth.
(§2) Cells were obtained from the American Type Culture Collection (ATCC) and the European Collection of Cell Cultures. Cells were thawed in their appropriate media plus supplements (see table below). Cells were passaged at confluence by washing once in HBSS cation-free followed by a 3 minutes incubation with trypsin ([0.5 µg/ml]/EDTA [0.2 µg/ml]) (Gibco-BRL, 15400054) solution in HBSS at 37°C (except non-adherent cell lines - hematologic), and transferred to their appropriate media plus supplements. Prior to seeding at defined cell concentration, cells were recovered in medium, centrifuged, taken up in medium and counted.
(§3) All treatments were performed in triplicate. Experiments were carried out in 96-well cell culture plates (Cultek) and the cell lines seeded at the density mentioned in the table above and cultured at 37°C with 5% CO2. After 24h, media were supplemented by 100 µl/well of diluted test compound at variable final concentrations and incubated for 72 hours. Then, AlamarBlue® Reagent (Biosource DAL1100) was added to each well and incubated at 37°C for 4 hours. Relative fluorescent intensity that correlates with the number of living cells was read in a Cytofluor plate reader (Millipore) at 535/590 nm (Excitation/emission). After reading the AlamarBlue® signal, the hexosaminidase activitity was measured according to the following protocol: medium was removed and cells were washed once with PBS. 60 µl of substrate solution (p-nitrophenol-N-acetyl-beta-D-glucosaminide 7.5 mM [Sigma N-9376], sodium citrate 0.1 M, pH 5.0, 0.25% Triton X-1 00) was added to each well and incubated at 37°C for 1-2 hours; after this incubation time, a bright yellow colour appears; then, plates could be developed by adding 90 µl of developer solution (Glycine 50 mM, pH 10.4; EDTA 5 mM), and absorbance was recorded at 405 nm.
(§4) Note: In all cases assays were performed in Alamar Blue with the exception of those indicated (* = Hexosaminidase assay)

HepG2 = settings: Homo sapiens, Liver cancer HepG2, Alamar Blue
Method: as §1, §2, §3, §4

T47D = settings: Homo sapiens, Breast cancer T47D
Method: as §1, §2, §3, §4

U-373 MG = settings: Homo sapiens, U373 MG, Brain U-373 MG
Method: as §1, §2, §3, §4

RCC 786-O = settings: Homo sapiens, 786-0, Renal RCC 786-O, Alamar Blue
Method: as §1, §2, §3, §4

PC-3 = settings: Homo sapiens, Prostate cancer PC-3, Alamar Blue
Method: as §1, §2, §3, §4

MDA-MB-468 = settings: Homo sapiens, Breast cancer MDA-MB-468, Alamar Blue
Method: as §1, §2, §3, §4

143b = settings: Homo sapiens, Osteosarcoma 143b, Alamar Blue
Method: as §1, §2, §3, §4

RPMI-8226 = settings: Homo sapiens, Multiple mieloma RPMI-8226, Alamar Blue
Method: as §1, §2, §3, §4

SK-OV-3 = settings: Homo sapiens, Ovarian cancer SK-OV-3, Alamar Blue
Method: as §1, §2, §3, §4

CCRF-CEM = settings: Homo sapiens, Hematologic CCRF-CEM, Alamar Blue
Method: as §1, §2, §3, §4

LNCaP = settings: Homo sapiens, Prostate cancer LNCaP, Alamar Blue
Method: as §1, §2, §3, §4

Jurkat = settings: Homo sapiens, Hematologic Jurkat, Alamar Blue
Method: as §1, §2, §3, §4

NCI-H1975 = settings: Homo sapiens
Method: as §1, §2, §3, §4

RWP-1 = test system: RWP-1
Method: as §1, §2, §3, §4

NCI-H1650 = settings: Homo sapiens
Method: as §1, §2, §3, §4

OVCAR-3 = settings: Homo sapiens
Method: as §1, §2, §3, §4

PANC-1 = settings: Homo sapiens, Pancreatic cancer PANC-1, Alamar Blue
Method: as §1, §2, §3, §4

[1] = Lung cancer NCI-H1975, Alamar Blue
[2] = Lung cancer NCI-H1650, Alamar Blue
[3] = Ovarian cancer OVCAR-3, Alamar Blue
[4] = Pancreatic cancer RWP-1, Alamar Blue
[5] = Lung cancer NCI-H1975, Hexosaminidase assay (*)
[6] = Lung cancer NCI-H1650, Hexosaminidase assay (*)
[7] = Ovarian cancer OVCAR-3, Hexosaminidase assay (*)

Row | Structure (SMILES) | EC50 (MDA-MB-435) [nM] | EC50 (HepG2) [nM] | EC50 (T47D; Alamar Blue) [nM] | EC50 (U-373 MG; Alamar Blue) [nM] | EC50 (RCC 786-O) [nM] | EC50 (PC-3) [nM] | EC50 (MDA-MB-468) [nM] | EC50 (143b) [nM] | EC50 (RPMI-8226) [nM] | EC50 (SK-OV-3) [nM] | EC50 (CCRF-CEM) [nM] | EC50 (LNCaP) [nM] | EC50 (Jurkat) [nM] | EC50 (NCI-H1975; [1]) [nM] | EC50 (NCI-H1650; [2]) [nM] | EC50 (OVCAR-3; [3]) [nM] | EC50 (RWP-1; [4]) [nM] | EC50 (U-373 MG; Hexosaminidase assay (*)) [nM] | EC50 (PANC-1) [nM] | EC50 (NCI-H1975; [5]) [nM] | further results
1 | CC(C)C[C@H](NC(=O)[C@@H]1N[C@H](c2ccccc2)[C@@H]([N+](=O)[O-])[C@@H]1c1ccccc1)B(O)O [Example 1, (R)-3-methyl-1-((2R,3R,4S,5R)-4-nitro-3,5-diphenylpyrrolidine-2-carboxamido)butylboronic acid] | 1000 | 1400 | 10000 | 44000 | 4700 | 1500 | 4100 | 5000 | 150 | 4100 | 670 | 390 | 2500 | 25000 | 3300 | 740 |  |  |  |  | EC50 (RWP-1; Pancreatic cancer RWP-1, Hexosaminidase assay (*)): 24000 nM
2 | CC(C)C[C@H](NC(=O)[C@@H]1N[C@H](c2ccc3ccccc3c2)[C@@H]([N+](=O)[O-])[C@@H]1c1ccccc1)B(O)O [Example 12, (R)-3-methyl-1-((2R,3R,4S,5R)-5-(naphthalen-2-yl)-4-nitro-3-phenylpyrrolidine-2-carboxamido)butylboronic acid] | 210 | 500 |  | 11000 | 2400 | 300 | 1000 | 370 | 310 | 1400 | 140 | 120 | 800 | 780 | 370 | 330 |  |  |  |  | EC50 (T47D; Hexosaminidase assay (*)): 7100 nM
3 | CC(C)C[C@H](NC(=O)[C@@H]1CCCN1)B(O)O [MG-319, {(R)-3-methyl-1-[(S)-pyrrolidine-2-carboxamido]butyl}boronic acid, reference compound] | 5300 | 8100 | 25000 | 92000 | 19000 | 26000 | 18000 | 980 | 4800 | 16000 | 4500 | 4200 | 4700 | 47000 | 14000 | 6900 |  |  |  |  | 
4 | CC(C)C[C@H](NC(=O)[C@@H]1N[C@H](c2ccccc2)[C@@H]([N+](=O)[O-])[C@@H]1c1ccc(F)cc1)B(O)O [Example 6, (R)-1-((2R,3R,4S,5R)-3-(4-fluorophenyl)-4-nitro-5-phenylpyrrolidine-2-carboxamido)-3-methylbutylboronic acid] | 1100 | 3100 |  |  | 12000 | 7100 | 2200 | 1900 | 1300 | 13000 | 630 | 1800 | 2000 |  |  |  | 4400 | 17000 | 14000 | 7300 | EC50 (T47D; Hexosaminidase assay (*)): 21000 nM; EC50 (NCI-H1650; [6]): 12000 nM; EC50 (OVCAR-3; [7]): 2200 nM

Second part, led by results:

Row | EC50 (MDA-MB-435) [nM] | EC50 (HepG2) [nM] | EC50 (T47D; Alamar Blue) [nM] | EC50 (U-373 MG; Alamar Blue) [nM] | EC50 (RCC 786-O) [nM] | EC50 (PC-3) [nM] | EC50 (MDA-MB-468) [nM] | EC50 (143b) [nM] | EC50 (RPMI-8226) [nM] | EC50 (SK-OV-3) [nM] | EC50 (CCRF-CEM) [nM] | EC50 (LNCaP) [nM] | EC50 (Jurkat) [nM] | EC50 (NCI-H1975; [1]) [nM] | EC50 (NCI-H1650; [2]) [nM] | EC50 (OVCAR-3; [3]) [nM] | EC50 (RWP-1; [4]) [nM] | EC50 (U-373 MG; Hexosaminidase assay (*)) [nM] | EC50 (PANC-1) [nM] | EC50 (NCI-H1975; [5]) [nM] | Structure (SMILES) | further results
5 | 370 | 380 | 2100 | 7300 | 1700 | 2300 | 790 | 2000 | 270 | 2200 | 330 | 110 | 1700 | 41000 | 790 | 890 | 3600 |  |  |  | CC(C)C[C@H](NC(=O)[C@H]1N[C@@H](c2ccccc2)[C@@H]([N+](=O)[O-])[C@@H]1c1ccccc1)B(O)O [Example 4, (R)-3-methyl-1-((2S,3R,4S,5S)-4-nitro-3,5-diphenylpyrrolidine-2-carboxamido)butylboronic acid] | 
6 | 170 | 220 | 1300 |  | 1000 | 680 | 120 | 100 | 60 | 330 | 52 | 150 | 40 |  |  |  | 420 | 1100 | 580 | 840 | CC(C)C[C@H](NC(=O)[C@@H]1N[C@H](c2ccccc2)[C@@H]([N+](=O)[O-])[C@@H]1c1ccco1)B(O)O [Example 11, (R)-1-((2R,3R,4S,5R)-3-(furan-2-yl)-4-nitro-5-phenylpyrrolidine-2-carboxamido)-3-methylbutylboronic acid] | EC50 (NCI-H1650; [6]): 1200 nM; EC50 (OVCAR-3; [7]): 280 nM
7 | 310 | 560 | 570 |  | 430 | 1200 | 320 | 290 | 60 | 1300 | 170 | 380 | 80 |  |  |  | 1100 | 2800 | 3000 | 1100 | CC(C)C[C@H](NC(=O)[C@@H]1N[C@H](c2ccccc2)[C@@H]([N+](=O)[O-])[C@@H]1c1cccs1)B(O)O [Example 10, (R)-3-methyl-1-((2R,3R,4S,5R)-4-nitro-5-phenyl-3-(thiophen-2-yl)pyrrolidine-2-carboxamido)butylboronic acid] | EC50 (NCI-H1650; [6]): 1800 nM; EC50 (OVCAR-3; [7]): 860 nM
